{"source": "BindingDB's records for doi:10.1074/jbc.M804990200", "about": "(Harvard Medical School, 2008)", "data": [{"target": "Dihydroorotate dehydrogenase (quinone), mitochondrial (Homo sapiens, UniProt Q02127)", "sequence (Q02127 whole entry)": "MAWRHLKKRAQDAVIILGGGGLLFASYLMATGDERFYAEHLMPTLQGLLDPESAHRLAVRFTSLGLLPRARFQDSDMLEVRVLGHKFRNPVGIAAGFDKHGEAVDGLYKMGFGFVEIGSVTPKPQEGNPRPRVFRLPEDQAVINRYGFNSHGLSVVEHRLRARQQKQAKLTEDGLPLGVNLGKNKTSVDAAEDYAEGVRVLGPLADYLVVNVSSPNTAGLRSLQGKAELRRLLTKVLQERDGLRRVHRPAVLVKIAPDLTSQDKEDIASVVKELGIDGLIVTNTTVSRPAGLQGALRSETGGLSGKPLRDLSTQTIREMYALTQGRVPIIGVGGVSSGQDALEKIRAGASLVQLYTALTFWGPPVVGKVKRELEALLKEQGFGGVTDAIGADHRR", "experiment": "Continuous Assay", "description": "(§1) Assay was determined using a continuous assay.", "units": {"IC50": "nM"}, "values": [{"molecule": "CCCCCC1CCCc2c1nc1ccccc1c2O", "note": "(centres undefined) [US8703811, 3]", "IC50": "> 30000"}, {"molecule": "CCCNC(=O)c1ccc(-n2c(C)cc3ccccc32)s1", "note": "[US8703811, 1]", "IC50": "> 30000"}, {"molecule": "CCOC(=O)c1[nH]c(C)c(Cc2ccc(OCC)cc2)c1C", "note": "[US8703811, 6]", "IC50": "> 30000"}, {"molecule": "Cc1ccccc1/C=C/c1cc(O)c2ccccc2n1", "note": "[US8703811, 2]", "IC50": "> 30000"}]}, {"target": "T1, Dihydroorotate dehydrogenase (quinone), mitochondrial (Plasmodium falciparum, UniProt Q54A96)", "T1 sequence (Q54A96 whole entry)": "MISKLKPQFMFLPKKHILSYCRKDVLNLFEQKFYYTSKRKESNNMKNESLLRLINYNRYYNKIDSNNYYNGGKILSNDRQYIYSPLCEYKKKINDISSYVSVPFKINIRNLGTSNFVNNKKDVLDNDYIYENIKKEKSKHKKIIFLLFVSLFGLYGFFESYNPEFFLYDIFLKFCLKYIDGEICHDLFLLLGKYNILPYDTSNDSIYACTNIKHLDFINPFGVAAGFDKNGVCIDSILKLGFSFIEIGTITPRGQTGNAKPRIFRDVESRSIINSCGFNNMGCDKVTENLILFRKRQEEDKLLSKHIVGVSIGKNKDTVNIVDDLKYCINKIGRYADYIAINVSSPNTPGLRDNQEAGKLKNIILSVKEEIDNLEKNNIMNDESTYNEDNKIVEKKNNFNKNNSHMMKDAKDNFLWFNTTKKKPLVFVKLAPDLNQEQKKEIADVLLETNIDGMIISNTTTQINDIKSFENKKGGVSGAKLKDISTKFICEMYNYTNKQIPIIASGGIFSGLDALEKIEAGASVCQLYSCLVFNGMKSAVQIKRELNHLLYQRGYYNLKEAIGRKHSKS", "experiment": "Continuous Assay", "description": "as §1", "units": {"IC50": "nM"}, "values": [{"molecule": "CCCCCC1CCCc2c1nc1ccccc1c2O", "note": "(centres undefined) [US8703811, 3]", "IC50": 340}, {"molecule": "CCCNC(=O)c1ccc(-n2c(C)cc3ccccc32)s1", "note": "[US8703811, 1]", "IC50": 420}, {"molecule": "CCOC(=O)c1[nH]c(C)c(Cc2ccc(OCC)cc2)c1C", "note": "[US8703811, 6]", "IC50": 83}, {"molecule": "O=C(NC1CC1)c1ccc(N2CCSc3ccccc32)s1", "note": "[US8703811, 5]", "IC50": 250}, {"molecule": "Cc1ccccc1/C=C/c1cc(O)c2ccccc2n1", "note": "[US8703811, 2]", "IC50": 930}]}, {"target": "T2, Dihydroorotate dehydrogenase (quinone), mitochondrial (Plasmodium vivax (strain Salvador I), UniProt A5K1N1)", "T2 sequence (A5K1N1 whole entry)": "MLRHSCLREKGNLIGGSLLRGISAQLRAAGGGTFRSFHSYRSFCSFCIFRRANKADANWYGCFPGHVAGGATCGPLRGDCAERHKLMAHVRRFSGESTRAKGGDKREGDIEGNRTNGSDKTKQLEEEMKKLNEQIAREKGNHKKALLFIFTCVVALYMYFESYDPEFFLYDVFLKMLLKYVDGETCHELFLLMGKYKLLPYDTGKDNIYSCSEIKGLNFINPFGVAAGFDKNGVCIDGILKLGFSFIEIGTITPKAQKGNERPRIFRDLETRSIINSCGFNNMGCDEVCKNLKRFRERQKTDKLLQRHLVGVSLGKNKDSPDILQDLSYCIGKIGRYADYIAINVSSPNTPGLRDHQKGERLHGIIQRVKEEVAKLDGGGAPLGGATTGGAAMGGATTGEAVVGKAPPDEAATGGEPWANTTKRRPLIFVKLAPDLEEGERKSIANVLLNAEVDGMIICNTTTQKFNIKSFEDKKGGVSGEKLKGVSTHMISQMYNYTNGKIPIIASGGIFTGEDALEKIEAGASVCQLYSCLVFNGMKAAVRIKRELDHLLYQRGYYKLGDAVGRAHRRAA", "experiment": "Continuous Assay", "description": "as §1", "units": {"IC50": "nM"}, "values": [{"molecule": "CCCCCC1CCCc2c1nc1ccccc1c2O", "note": "(centres undefined) [US8703811, 3]", "IC50": 510}, {"molecule": "Cc1ccccc1/C=C/c1cc(O)c2ccccc2n1", "note": "[US8703811, 2]", "IC50": 5600}]}, {"target": "T3, Dihydroorotate dehydrogenase (quinone), mitochondrial [100-517] (Plasmodium berghei (strain Anka), UniProt A0A509AEH5)", "T3 construct": "100-517", "T3 sequence (A0A509AEH5 whole entry)": "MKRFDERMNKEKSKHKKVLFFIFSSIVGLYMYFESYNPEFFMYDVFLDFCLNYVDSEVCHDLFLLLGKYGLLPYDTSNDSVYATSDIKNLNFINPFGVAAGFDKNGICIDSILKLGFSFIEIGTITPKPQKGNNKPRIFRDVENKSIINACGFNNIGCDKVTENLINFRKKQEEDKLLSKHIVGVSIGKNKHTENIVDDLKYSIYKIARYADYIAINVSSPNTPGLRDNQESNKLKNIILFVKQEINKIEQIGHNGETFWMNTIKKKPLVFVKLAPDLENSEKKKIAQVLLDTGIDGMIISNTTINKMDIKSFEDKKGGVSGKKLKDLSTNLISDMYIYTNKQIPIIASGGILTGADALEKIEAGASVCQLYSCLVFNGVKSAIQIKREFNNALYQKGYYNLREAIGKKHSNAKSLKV", "experiment": "Continuous Assay", "description": "as §1", "units": {"IC50": "nM"}, "values": [{"molecule": "CCCCCC1CCCc2c1nc1ccccc1c2O", "note": "(centres undefined) [US8703811, 3]", "IC50": 110}, {"molecule": "CCOC(=O)c1[nH]c(C)c(Cc2ccc(OCC)cc2)c1C", "note": "[US8703811, 6]", "IC50": 60}, {"molecule": "Cc1ccccc1/C=C/c1cc(O)c2ccccc2n1", "note": "[US8703811, 2]", "IC50": 560}]}]}
